Reference: ChEMBL document CHEMBL6109111
Calls of active or inactive are those of the source. The rule behind the calls is not given here.

System: Mus musculus
Assay: Inhibition of morphine-mediated intestinal motility in male Kunming mouse assessed as propulsion function at 4 mg/kg, ip pretreated with compound for 30 mins followed by morphine addition and measured after 30 mins by charcoal gavage based Intestinal motility assay
Assay type: functional, organism-based
Conditions: time 60.0 min

Q: For `C=CCN1CC[C@]23c4c5ccc(O)c4O[C@H]2C(=O)CC[C@@]3(O)[C@H]1C5`, which Activity is on record?
A: The Activity was “Active”.
